Data from patent publication US8394852B2, “Inotilone derivatives as coherent biological response modifier (cBMR)” (Sami Labs Ltd, priority 2009, dated 2013).

Experiments:
[1] = system: iNOS (inducible nitric oxide synthase); experiment: LPS-induced iNOS protein expression by Western blotting in RAW 264.7 cells; type: cell-based, murine; conditions: E coli LPS 100 ng/mL, co-treatment
Experimental: (§1) RAW 264.7 cells, derived from murine macrophage (American Type Culture Collection, MD, USA) were cultured in DMEM supplemented with 10% endotoxin-free, heat-inactivated fetal calf serum, 100 units/mL penicillin and 100 mcg/mL streptomycin, the culture media was changed to serum-free DMEM without phenol red on reaching cell density 2-3×10^6 cells/mL, and the cells activated by incubation in medium containing E coli LPS (100 ng/mL). Test compounds dissolved in dimethylsulfoxide were added together with the LPS. Cells treated with 0.05% DMSO acted as vehicle control.
(§2) The effects of test compounds on LPS-induced iNOS (inducible nitric oxide synthase) and COX-2 protein expressions were studied by Western blotting.

[2] = system: COX-2; experiment: LPS-induced COX-2 protein expression by Western blotting in RAW 264.7 cells; type: cell-based, murine; conditions: E coli LPS 100 ng/mL, co-treatment
Experimental: as §1, §2

[3] = system: iNOS; conditions: cited from earlier work
[4] = system: COX-2; conditions: through decreasing the enzyme activity of COX-2; cited from earlier work
[5] = system: nuclear factor-kappaB (NFkappaB); conditions: cited from earlier work
[6] = system: PI3K/Akt and extracellular signal-regulated kinase 1/2 and p38 mitogen-activated protein kinase; conditions: cited from earlier work

Row | Structure (SMILES) | effect on LPS-induced iNOS protein expression [1] | effect on LPS-induced COX-2 protein expression [2] | protein and mRNA expression of iNOS [3] | prostaglandin E(2) production [4] | LPS-induced nuclear translocation of NFkappaB subunit and NFkappaB-dependent transcriptional activity [5] | LPS-induced activation of PI3K/Akt, ERK 1/2 and p38 MAPK [6]
1 | CC1=CC(=O)/C(=C/c2ccc(O)c(O)c2)O1 [4a, Inotilone] | suppressed the induction of iNOS | but not of COX-2 | blocked protein and mRNA expression of iNOS | inhibited prostaglandin E(2) production | reduction of LPS-induced nuclear translocation of NFkappaB subunit and the NFkappaB-dependent transcriptional activity | inhibited LPS-induced activation of PI3K/Akt and extracellular signal-regulated kinase 1/2 and p38 mitogen-activated protein kinase
2 | COc1cc(/C=C2\OC(C)=CC2=O)ccc1O [4b, 2-(4-Hydroxy-3-methoxy-benzylidene)-5-methyl-furan-3-one] | no effect on LPS induced iNOS protein expression | slightly stimulated LPS-induced COX-2 expression |  |  |  | 
